According to US9981037B2, “Combination therapy of beta-glycolipids and antibodies for the treatment of immune-related disorders” (HADASIT MEDICAL RESEARCH SERVICES AND DEVELOPMENT LTD., priority 2008, dated 2018):

Key:
[1] = system: healthy human volunteers; experiment: Clinical and laboratory follow-up, CD3+ counts and HAMA in healthy human volunteers; format: in vivo; details: oral
Method: * OKT3 (Orthoclone OKT-3) was purchased from Ortho Biotech Inc. (New Jersey, USA). Antibodies to OKT3 were evaluated on day 30 using the Human Anti-Mouse Antibodies (HAMA)-ELISA kit (MEDAC, Hamburg, Germany).
Healthy males (≥18 years) not on therapy for medical or other illnesses were enrolled in accordance with the guidelines of the Hebrew University-Hadassah Institutional Committee for Human Clinical Trials, and the approval of the Israel Ministry of Health Committee for Human Trials. Of 35 potential study subjects screened 18 met inclusion and exclusion criteria and were randomized to one of the treatment groups.
Nine subjects (3/group) were orally administered 0.2 mg, 1.0 mg or 5.0 mg of OKT3 daily for 5 days and immune parameters measured on days 5, 10 and 30 days (FIG. 12). Six subjects (3/group) received 7.5 mg of beta glucosylceramide in combination with 0.2 mg or 1.0 mg of OKT3 and 3 subjects received GC alone. All subjects were treated with 20 mg of Omeprazole (a proton pump inhibitor) during the 5 days of dosing. […]
All patients underwent a full medical history and physical examination, including review of adverse effects on days 1, 5, 10, and 30, along with complete blood counts, differential, electrolytes, liver and kidney function tests, and lipid profile. C-reactive protein and sedimentation rates were also evaluated. […]

[2] = system: PBL cells; experiment: Cytokine secretion profile of PBL cells stimulated with anti-CD3; format: in vivo, human
Method: (§1) Nine subjects (3/group) were orally administered 0.2 mg, 1.0 mg or 5.0 mg of OKT3 daily for 5 days and immune parameters measured on days 5, 10 and 30 days (FIG. 12). Six subjects (3/group) received 7.5 mg of beta glucosylceramide in combination with 0.2 mg or 1.0 mg of OKT3 and 3 subjects received GC alone. All subjects were treated with 20 mg of Omeprazole (a proton pump inhibitor) during the 5 days of dosing. Dosing occurred in the morning before breakfast at the study site following a 8 hours fast.
PBMCs were isolated from blood samples using Ficol Hypaque solution. To measure proliferation, 2×10^5 cells per well were cultured in triplicate in RPMI 1640 medium with 5% FBS (Biological Industries, Israel), 100 units/ml penicillin, 100 µg/ml streptomycin, 1% Glutamine, 1% non essential […], 1% sodium pyruvate and β-mercapto-ethanol (Biological Industries, Israel). Cells were stimulated with pre-coated antibodies (in 200 μl PBS/well):μg/well of anti OKT-3 mAb (Ortho Biotech Inc, New Jersey, USA) or 5 μg/ml soluble anti-CD3 mAb (eBioscience, CA, USA) or 2.5 μg/ml anti-CD28 mAb (R&D systems, MN, USA). One set of the above wells were added nothing while 10 μg of GC was added to a similar set for 72 h in culture at 37° C. with 5% CO2. Supernatants were collected for IL-13, IL-17 and IFN-γ. Enzyme-linked immunosorbent assays for these cytokines were performed according to the manufacturer's protocol (R&D Systems, Minneapolis, Minn.). For TGF-β, 2×10^5 cells per well were cultured in serum free media (Biotarget, Biological Industries, Israel). After collecting the supernatants, 1 µCi [^3H]thymidine (Amersham Biosciences, UK) was added to each well, and cells were harvested 18 h later. Proliferation was measured by scintillation counting.
To investigate the effect of oral OKT3 on the cytokine secretion profile of T cells, PBL cells were stimulated with 5 μg anti-CD3 and the secretion of IFN-γ, IL-17, TGF-β and IL-13 was measured.

[3] = system: dendritic cells; experiment: Expression of IL-23, IL-10 and TGF-β in dendritic cells by rtPCR; format: in vivo, human
Method: as §1
Frozen PBMCs were used for sorting different cell populations, surface staining, and proliferation assays, and cytokine measurements. Cell sorting was performed by thawing […] PBMCs at room temperature (RT) and washing themed twice in medium at RT in 50-ml tubes in a 10-ml volume at 1,400 rpm. Cells were suspended to 20×10^6/ml and stained with seven colors staining of cells using Fc block, Lin-FITC, CD11c-APC, CD123-PE, CD3-Amcyan, CD4-Alexa700, CD25-PB, and 7-AAD was performed. Compensation controls, including an unstained control, were prepared. All samples were washed with medium and filtered into 15-ml tubes with 2 ml volume each to a total volume of 2 ml. CD4+ effector T cells, CD4+ regulatory T cells, myeloid DCs, and plasmacytoid DCs were sorted. Tubes were washed to get retrieve all sticky cells and spin them at 1,400 rpm. All cell populations were put in 350 μl of RLT 350 ul (lysis buffer), and transferred to eppendorff microtubes, and froze at −70° C. RNA was prepared using Qiagen micro kits (Valencia, Calif., USA) and cDNA was prepared using Applied Biosystems kits (Foster City, Calif., USA). We performed real-time PCR (RT-PCR) for different genes on in regulatory T cells, effector T cells, and DCs was performed.
RT RT-PCR was performed on DC from all patients in all groups. Sorting of DC was performed as described above. Total RNA was isolated from cell pellets using the RNA easy Mini Kit (QIAGENQiagen). RNA was stored at −80° C. First, strand cDNA synthesis was performed for each RNA sample from 0.5-1 μgm of total RNA using Taqman reverse transcription reagents (Applied Biosystems). cDNA was amplified using sequence-specific primers (for IL-23, IL-10, IL-1, IL-6, and TGF-β) and real-time PCR mix (Applied Biosystems) on an ABI7500 cycler. The GAPDH gene was used as an endogenous control to normalize for differences in the amount of total. RNA in each sample. All values were expressed as fold fold-increase or -decrease relative to the expression of GAPDH.
To further investigate the effect of oral OKT3 on the innate immune system, the expression of IL-23, IL-10 and TGF-β in dendritic cells was next measured by rtPCR.

## OKT3: murine monoclonal anti-CD3 antibody (Orthoclone OKT-3, Ortho Biotech)
[1]
  CD3+ lymphocyte counts or modulation of CD3 from the T cell surface: no decrease
[1]; day 30
  anti-OKT3 (HAMA) antibodies: no subject developed
[2]; 0.2 mg and 5.0 mg oral, not shown
  cytokine secretion findings: similar, though not as consistent findings
[2]; 1.0 mg oral
  subjects with decrease in IFN-γ: three subjects
  subjects with decrease of IL-17: two out of three subjects
  subjects with increase of TGF-β: two out of three subjects
[2]; 1.0 mg oral, not shown
  subjects with increase of IL-13: three out of three subjects
[3]; 0.2 mg oral, not shown
  subjects with similar findings (IL-10, TGF-β) in dendritic cells: two out of three subjects
[3]; 1.0 mg oral
  subjects with decrease in IL-23 in dendritic cells: all three subjects
  subjects with increase in IL-10 in dendritic cells: two out of three subjects
  subjects with increase in TGF-β in dendritic cells: one out of three subjects
[3]; 5.0 mg oral, not shown
  effect on dendritic cells: no effect
